Measured values taken from US20150024406A1, “INCREASED AQUAPORIN EXPRESSION ON CELLULAR MEMBRANE TO IMPROVE CRYOPRESERVATION EFFICIENCY” (priority 2013, published 2015).
Read-outs that look alike come from different tables or passages of the source.

Legend:
rat primary hepatocytes [1] = test: Cell shrinkage analysis in hypertonic NaCl solution; format: cell-based; details: 5M NaCl, 20 minutes; 12 hours treatment; HgCl2 0.1 mM for 5 min; vs control cells; FIG. 1
Description: Cell shrinkage analysis. Cell shrinkage analysis was performed on treated and control samples prepared on tissue culture plates as described above. One culture plate at a time was transferred to an Olympus IX70 microscope (Olympus America Inc, Pa.) mounted with a computer interfaced camera (Hamamatsu Corporation, Bridgewater, N.J.). The media from culture plate was aspirated and 1 mL of 5M NaCl solution was added. Response of the cells to the hypertonic NaCl solution was captured at 40× magnification at one minute intervals for 20 minutes. Images were processed using software MetaMorph Imaging System (Molecular Devices, Sunnyvale, Calif.). Using MetaMorp, the variations of the cross-sectional area of the cells at various sites were measured over time to analyze the shrinkage behavior of the cells in the hypertonic solution.

rat primary hepatocytes [2] = test: Post-thaw cell viability after cryopreservation (Live-Dead staining); format: cell-based; details: for post-thaw cell viability vs control: 20% DMSO or 20% glycerol in DMEM as CPA, one week at −80° C., 24 hours recuperation, FIG. 2 and 3; for cell survival with glycerol as the CPA compared with DMSO: treated cells, glycerol vs DMSO as cryoprotectant
Description: Cryopreservation of Treated and Control Samples. After treatment of cell cultures for 12 hours, samples were removed from the incubator and placed on ice to reduce the cell temperature to 4° C. to minimize the toxicity of the cryoprotecting agent (CPA). Two different CPA solutions, 20% dimethyl sulfoxide in DMEM media and 20% glycerol in DMEM media were used. The CPA solution (1 mL) was added to the samples and incubated at 4° C. for 10 minutes to reach equilibrium. Samples were transferred to the CryoMed Control Rate freezer (Thermo Forma, Waltham, Mass.).
The controlled cooling process was initiated at 4° C. and a cooling rate of 1° C./min was maintained until −16° C. followed by a cooling rate of 2° C./min until −36° C./min, and thereafter a cooling rate of 10° C./min until a temperature of −80° C. was achieved. The samples were further maintained at −80° C. for 5 minutes to ensure equilibrium. At the end of the freezing process, the samples were transferred immediately to a −80° C. Revco freezer (Kendro Laboratory, Ashville, N.C.) and stored for a week.
Evaluation of Post-thaw Cell Viability. The cryopreserved samples from the −80° C. freeze were transferred to a sterile glass box and plated in a water bath maintained at 37° C. until the media in the frozen samples completely thawed. At this juncture, the samples were between 5-10° C. Immediately, the CPA containing media in the samples was aspirated to prevent any toxicity to the cells. DMEM (1 mL) was added to the samples and incubated at 37° C. for 10 minutes. After 10 minutes of incubation, the media in the samples was again refreshed in order to remove any remaining traces of CPA. These samples were then placed in the incubator at 37° C., 5% CO2 for 24 hours and allowed to recuperate from the freeze-thaw process.
After 24 hours of recuperation time, cell viability of the samples was determined by using nuclei fluorescence dyes. The samples were washed with 1× PBS solution and incubated with Hoechst Dye (1 μg/mL) and Ethidium Homodimer (2 μM)(Molecular Probes, Eugene, Oreg.) in PBS for 30 minutes. The viability solution was aspirated, and samples were fixed by adding 10% formalin (1 mL) (VWR, West Chester, Pa.) and incubating for 20 minutes. Subsequently, the cell viability was examined with a confocal microscope with DAPI (excitation 358 nm; emission 461 nm) and Texas red (excitation 596 nm; emission 620 nm) filters. The fluorescent images obtained were then analyzed using MetaMorp Imaging System.

AQP8 [3] = test: Confocal immunofluorescence of AQP8 localization in cultured hepatocytes; format: cell-based, rat; details: hepatocytes treated 12 hours; 100 μM Bt2cAMP or 1 μM glucagon; vs control
Description: Confocal immunofluorescence. For confocal immunofluorescence experiments, collagen coated chamber slides were used instead of the tissue culture plates. Hepatocytes (5×10^5) were plated on the collagen-coated chamber slides, and incubated at 37° C. for 4 hours. The cells were then treated with a) Bt2cAMP, b) glucagon and c) normal DMEM media (control) and incubated for 12 hours. After the 12 hours, the cells were fixed with 2% formaldehyde for 10 minutes at room temperature and permeabilized with 0.2% Triton X-100 for 2 minutes. The cells were then treated with a blocking solution containing 3% BSA at room temperature and incubated overnight at 4° C. with goat affinity-purified AQP8 antibody (Santa Cruz Biotechnology Inc., Santa Cruz, Calif.) of dilution 1:50 in PBS. Then, the chamber slides were rinsed with PBS solution and treated with Alexa Flour 488—conjugated donkey anti-goat […] secondary antibody (Invitrogen, Calif.) for 1 hour. The dilution of the secondary antibody used was 1:400 in PBS. Then the cells were treated with 1 μg/mL concentration of Hoechst 33342 (Molecular Probes, Eugene, Oreg.) and mounted with Pro- Long (Molecular Probes, Eugene, Oreg.). Fluorescence localization of the AQP8 was then detected by immersion oil confocal microscopy with 100× magnification lens.

AQP8 [4] = details: cited from earlier work

Row | Molecule | cross-sectional area of cells over time (shrinkage) in hypertonic environment (rat primary hepatocytes [1]) | post-thaw cell viability vs control (rat primary hepatocytes [2]) | post-thaw cell viability of Bt2cAMP-treated vs glucagon-treated samples (rat primary hepatocytes [2]; 12 hrs treatment, most of the culture samples) | cell survival with glycerol as the CPA compared with DMSO (rat primary hepatocytes [2]) | AQP8 labeling at the cellular membrane (AQP8 [3]) | post-thaw cell viability by CPA used (rat primary hepatocytes [2]; glycerol as CPA compared to DMSO) | increase in the quantity of AQP8 on cellular membrane (AQP8 [4]; treatment of hepatocytes for 16 hours) | increase in the quantity of AQP8 on cellular membrane (AQP8 [4]; treatment of hepatocytes for 36 hours)
1 | CCCC(=O)Nc1ncnc2c1ncn2[C@@H]1O[C@@H]2COP(=O)(O)O[C@H]2[C@H]1OC(=O)CCC [Bt2cAMP, sodium (3aR,4R,6R,6aR)-4-(6-butanamido-9H-purin-9-yl)-6-[(butanoyloxy)methyl]-2-oxo-tetrahydro-2H-1,3,5,2λ^5-furo[3,4-d][1,3,2] dioxaphosphol-2-olate] | significant decrease in their cross-sectional area over time | significantly higher than the control | higher cell viability compared to the ones treated with glucagon | significant increase in the cell survival | higher density of AQP8 labeling at the cellular membrane | – | – | –
2 | [Cl][Hg][Cl] [HgCl2] | no significant shrinkage behavior | significantly lower cell viability | – | – | – | – | – | –
3 | OCC(O)CO [glycerol] | – | – | – | – | – | significantly higher post-thaw cell viability compared to DMSO | – | –
4 | glucagon | significant decrease in their cross-sectional area over time | significantly higher than the control | – | significant increase in the cell survival | higher density of AQP8 labeling at the cellular membrane | – | 80% | 120%
